We go through 73 compounds from PubChem BioAssay AID1996.

Molecules are shown by their SMILES. Converted amounts (≈) assume the structure as drawn.

For the data set the following is noted: buffer; pH 7.4; 200.0 µM.
With `COc1ccc(NC(=O)CNc2cc(S(=O)(=O)N3CCOCC3)ccc2N2CCOCC2)c(OC)c1`, the kinetic solubility worked out at 4.2 µg/mL (≈ 8.07 µM).

For the compound `CN(C(=O)c1ccc2c(c1)OCO2)C1CCCCC1`, the solubility (kinetic) was found to be 38.4 µg/mL (≈ 147 µM).

`COc1cccc(C(=O)c2cc3cc(Cl)ccc3[nH]2)c1` displayed a kinetic solubility below 0.6 µg/mL.

In turn, `Fc1ccccc1CNCCc1ccc2c(c1)OCO2` had a solubility (kinetic) of 40.5 µg/mL (≈ 148 µM).

The compound `O=C(COc1ccc2ccc(=O)oc2c1)NCc1ccccn1` had a kinetic solubility above 46.5 µg/mL.

Take `N#CCCN(C(=O)COC(=O)c1ccc(S(=O)(=O)N2CCOCC2)cc1)c1ccccc1`: the solubility (kinetic) amounted to 8.2 µg/mL (≈ 17.9 µM).

Compound `CN1CCSc2ccc(C(=O)Nc3cccc(F)c3)cc21` yielded a solubility (kinetic) of 1.4 µg/mL (≈ 4.63 µM).

For the compound `Cc1cc(C)nc(/N=C(\N)Nc2cccc(OCc3ccccc3)c2)n1`, the solubility (kinetic) was above 52.1 µg/mL.

`Cc1ccc(NC(=O)c2ccc3nsnc3c2)c(C)c1` came in with a solubility (kinetic) of 1.5 µg/mL (≈ 5.29 µM).

In turn, `O=C(Cn1c(=O)oc2ccccc21)Nc1ccc(Br)cc1` showed a kinetic solubility of 2.1 µg/mL (≈ 6.05 µM).

In the case of `CCN(C#N)c1nc(NC(C)C)nc(NC(C)(C)C)n1`, the solubility (kinetic) turned out to be 37 µg/mL (≈ 133 µM). Against the preceding compound, the solubility kinetic is about 18-fold higher.

In turn, `CN1CCN(C(=O)/C(=C/c2ccc(F)cc2)NC(=O)c2ccccc2)CC1` displayed a solubility (kinetic) of 54.5 µg/mL (≈ 148 µM).

`CCOC(=O)NC(=S)Nc1ccc(C(C)(C)C)cc1Br`: the solubility (kinetic) came out at 1.6 µg/mL (≈ 4.45 µM).

Regarding `Cc1cccc(NC(=O)Nc2c(C)n(C)n(-c3ccccc3)c2=O)c1`, the kinetic solubility was above 50.5 µg/mL.

Compound `CN(C(=O)COC(=O)c1ccc2c(c1)OCO2)C1CCCCC1` registered a kinetic solubility above 47.9 µg/mL.

In turn, `O=[N+]([O-])/C=C1/CCCCCN1` registered a solubility (kinetic) above 23.4 µg/mL.

For the compound `CCC(C(=O)NCCc1c[nH]c2ccc(C)cc12)c1ccccc1` (stereo not drawn), the solubility (kinetic) was found to be 26.4 µg/mL (≈ 82.4 µM).

The compound `Cc1ccc(OCCn2c(C)nc3ccccc32)cc1` registered a solubility (kinetic) of 9.6 µg/mL (≈ 36 µM). Against the preceding compound, the solubility kinetic is about 2.8-fold lower.

Compound `N#Cc1ncccc1CCc1cccc(Cl)c1` came in with a solubility (kinetic) of 22.4 µg/mL (≈ 92.3 µM).

`CCCNc1nc2c(c(=O)[nH]c(=O)n2C)n1CCOc1ccccc1` showed a kinetic solubility of 4 µg/mL (≈ 11.6 µM).

With `CC(C)CN(C(=O)c1ccco1)C1CCS(=O)(=O)C1` (stereo not drawn), the solubility (kinetic) was above 42.8 µg/mL.

Consider `NC(=O)c1ccsc1NC(=O)COC(=O)CNC(=O)c1ccc(Cl)cc1`, for which the kinetic solubility amounted to 3.4 µg/mL (≈ 8.59 µM).

Turning to `Cc1ccccc1NC(=O)NCCCCc1ccccc1`, the solubility (kinetic) is 1.5 µg/mL (≈ 5.31 µM).

`CC1C(=O)N2CCCc3cc(S(=O)(=O)N(C)CCC#N)cc1c32` (stereo not drawn): the kinetic solubility was above 50 µg/mL.

In turn, `c1ccc2c(c1)CCc1ccccc1C2=C1CCNCC1` yielded a kinetic solubility of 30.7 µg/mL (≈ 111 µM).

`O=c1[nH]c(CSc2ncn[nH]2)nc2ccccc12` displayed a solubility (kinetic) above 38.9 µg/mL.

On to `Cc1nc(C)n(C)c(=O)c1-c1ccccc1`, for which the kinetic solubility was above 32.1 µg/mL.

`Cc1cc(C(=O)COc2ccc(C#N)cc2)c(C)n1CC1CCCO1` (stereo not drawn) returned a solubility (kinetic) of 16.7 µg/mL (≈ 49.3 µM).

In turn, `Cc1ccc(NS(=O)(=O)c2ccc(C(=O)NCc3ccc(S(N)(=O)=O)cc3)cc2)cc1` returned a solubility (kinetic) of 51.7 µg/mL (≈ 113 µM).

For the compound `COc1cc2c(cc1OC)CN(Cc1cc(OC)c(O)c(OC)c1)CC2`, the solubility (kinetic) stood at 47.7 µg/mL (≈ 133 µM). This solubility kinetic and that of the compound before are within 1.5-fold of each other.

The compound `O=C(Nc1ccc(Br)cc1)NC1CCCCCCC1` returned a kinetic solubility below 0.3 µg/mL.

With `Cc1ccc(S(=O)(=O)N(C)C)cc1NC(=O)c1cccs1`, the solubility (kinetic) is 39.8 µg/mL (≈ 123 µM).

Compound `Cc1cccc(-n2c(/C=C/c3ccccn3)nc3ccccc3c2=O)c1` displayed a solubility (kinetic) of 0.5 µg/mL (≈ 1.47 µM).

Consider `CC(C)CNS(=O)(=O)c1cc2c3c(c1)CC(=O)N3CCC2`, for which the solubility (kinetic) was 45.8 µg/mL (≈ 149 µM).

`Cc1cccc(C)c1NC(=S)NCc1ccncc1`: the solubility (kinetic) was above 40.7 µg/mL.

The compound `CN(C)CCn1c(=S)[nH]c2ncccc2c1=O` yielded a kinetic solubility of 35.8 µg/mL (≈ 143 µM).

Consider `Cc1ccc(N2CC(C(=O)NCc3ccco3)CC2=O)cc1Cl` (stereo not drawn), for which the kinetic solubility was 30.8 µg/mL (≈ 92.6 µM). The solubility kinetic values of the last two compounds are within 1.5-fold of each other.

As to `Cc1cc(C(=O)COC(=O)c2cccnc2Cl)c(C)n1C`, the solubility (kinetic) was determined as 13 µg/mL (≈ 42.4 µM). Against the preceding compound, the solubility kinetic is about 2.4-fold lower.

As to `CC1CCN(C(=O)Cn2cc([N+](=O)[O-])ccc2=O)c2ccccc2S1` (stereo not drawn), the kinetic solubility is above 53.9 µg/mL.

The compound `Cc1ccc(C(=O)NC(C)C2CC3CCC2C3)cc1` (stereo not drawn) displayed a kinetic solubility below 0.6 µg/mL.

In the case of `O=C(Nc1ccc(N2CCOCC2)c(F)c1)c1cccs1`, the kinetic solubility was determined as 17 µg/mL (≈ 55.5 µM).

With `NNC(=O)c1ccc(N2CCCCCC2)c([N+](=O)[O-])c1`, the kinetic solubility was above 41.7 µg/mL.

`N#CC1=C(N)Oc2cc(N)ccc2C1c1ccccc1Cl` (stereo not drawn): the kinetic solubility was determined as 32.9 µg/mL (≈ 110 µM).

Take `COc1ccc(OC)c(S(=O)(=O)n2ccnc2C(C)C)c1`: the solubility (kinetic) came to 46.1 µg/mL (≈ 149 µM).

Take `CC1(C)C(CC2OCC(CN3CCCCC3)O2)[C@H]2CC[C@@H]1C2` (stereo partly drawn): the solubility (kinetic) turned out to be 25.9 µg/mL (≈ 84.2 µM).

As for `O=C(NCCC(=O)N1CCc2ccccc21)c1ccccc1Cl`, the solubility (kinetic) is 32.1 µg/mL (≈ 97.6 µM).

`Nc1[nH]c2cc([N+](=O)[O-])ccc2c1-c1ccccn1` returned a solubility (kinetic) of 1.4 µg/mL (≈ 5.51 µM). This solubility kinetic is about 23-fold lower than that of the compound before.

`CC1(C)S[C@@H]2[C@H](NC(=O)C(C(=O)[O-])c3ccccc3)C(=O)N2[C@H]1C(=O)[O-].[Na+]` (stereo partly drawn) registered a kinetic solubility above 63.4 µg/mL.

Consider `COCCNC(=O)c1cc2cc(Br)cc(Br)c2oc1=O`, for which the kinetic solubility turned out to be 1.6 µg/mL (≈ 3.95 µM).

`Cc1ccccc1NC(=O)C1C2CCCCC21` (stereo not drawn) registered a solubility (kinetic) of 3.4 µg/mL (≈ 14.8 µM).

In the case of `CCc1nc2ccccc2n1CC(=O)NC1CCS(=O)(=O)C1` (stereo not drawn), the kinetic solubility is above 48.2 µg/mL.

Regarding `O=C(NCCNC(=O)c1ccc(Cl)cc1Cl)c1ccccn1`, the solubility (kinetic) worked out at 43.4 µg/mL (≈ 128 µM).

`COC(=O)CSc1nnc(CNC(=O)c2ccc(OC)c(OC)c2)n1C` showed a kinetic solubility above 57.1 µg/mL.

Consider `CC(=O)c1cccc(-n2c(CCC(=O)O)ccc2-c2ccccc2)c1`, for which the kinetic solubility was above 50 µg/mL.

In the case of `O=C(CSc1cccc[n+]1[O-])Nc1cc(Cl)ccc1[N+](=O)[O-]`, the solubility (kinetic) was above 51 µg/mL.

Take `COc1ccc(OC)c(CNC(=O)C2CCN(S(C)(=O)=O)CC2)c1`: the solubility (kinetic) is above 53.5 µg/mL.

Take `COC(=O)C(C(C)C)N1CCc2c(C)nc3c(C#N)cnn3c21` (stereo not drawn): the kinetic solubility was above 47 µg/mL.

In the case of `O=C(NCC1CCCO1)c1cc(-c2ccccc2F)no1` (stereo not drawn), the solubility (kinetic) was determined as 42.4 µg/mL (≈ 146 µM).

In turn, `CC(C)(C)OC(=O)C(C)(C)O/N=C(\C(=O)O)c1csc(N)n1` came in with a kinetic solubility above 49.4 µg/mL.

On to `C=CCn1c(NCc2ccccc2OC)nc2ccccc21`, for which the kinetic solubility was determined as 30.2 µg/mL (≈ 103 µM).

Compound `O=C(Nc1ccc(S(=O)(=O)N2CCCCC2)cc1)c1ccco1` displayed a solubility (kinetic) of 46.2 µg/mL (≈ 138 µM).

Compound `O=C(NC(N1CCOCC1)C(Cl)(Cl)Cl)c1ccc(F)cc1` (stereo not drawn) showed a solubility (kinetic) of 41.1 µg/mL (≈ 116 µM).

Compound `CC1=C(C(=O)OC(C)C)C(c2cccs2)NC(=O)N1` (stereo not drawn) registered a kinetic solubility of 37.2 µg/mL (≈ 133 µM).

`O=C(OCCN1CCN(C2=NS(=O)(=O)c3ccccc32)CC1)c1ccccc1F` had a solubility (kinetic) of 57.3 µg/mL (≈ 137 µM).

`COc1ccccc1C(=O)O/N=C(\c1ccccc1)c1ccncc1` came in with a kinetic solubility of 34 µg/mL (≈ 102 µM).

With `O=C(Nc1nc2ccsc2c(=O)s1)C1CCC1`, the kinetic solubility turned out to be 8.1 µg/mL (≈ 30.4 µM).

On to `CCNc1nc2cccnc2s1`, for which the solubility (kinetic) is 24.7 µg/mL (≈ 138 µM).

In turn, `OC(CNCc1ccc2c(c1)OCO2)COc1ccc(F)cc1` (stereo not drawn) registered a solubility (kinetic) above 47.9 µg/mL.

Regarding `Nc1cc(=O)[nH]c(SCCSc2ccc(F)cc2)n1`, the kinetic solubility was found to be 6.2 µg/mL (≈ 20.8 µM).

As to `Nc1cc(=O)[nH]c(SCC(=O)Nc2ccc([N+](=O)[O-])cc2)n1`, the kinetic solubility is above 48.2 µg/mL.

For the compound `Cc1ccc(C(=O)N2C3=C(CCCC3)C(=O)NC23CCCCC3)cc1`, the kinetic solubility turned out to be 2.1 µg/mL (≈ 6.2 µM).

`COc1ccccc1-n1cc(-c2ccccc2)[nH]c1=S` gave a kinetic solubility of 3 µg/mL (≈ 10.6 µM).

The compound `CC#C[C@]1(O)CC[C@H]2[C@@H]3CCC4=CC(=O)CCC4=C3[C@@H](c3ccc(N(C)C)cc3)C[C@@]21C` returned a solubility (kinetic) of 7 µg/mL (≈ 16.3 µM).
